# Measurements reported in patent US8859574B2 (IRM LLC, priority 2008, dated 2014).
# Molecular target: T1, IGF-1R Ba/F3 (Homo sapiens, UniProt P08069)
# T1 construct: fused on or other part: TEL- (or BCR-) IGF-1R in Ba/F3: the kinase part holds the site
# Test: Ba/F3 Cell Viability Inhibition Assay (IGF-1R Ba/F3)
# Type: cell-based, murine
# Details: Tel-TK transformed Ba/F3 cells, 48 hours, Britelite luminescence
# Outline: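 A 48 h compound treatment at 37 °C (3750 cells/well) was followed by Britelite luminescence to measure viability. Cells were Ba/F3 pro-B cells, IL-3-independent via TEL-fused IGF-1R kinase transduction. A logistic fit gave IC50 as 50% viability relative to DMSO control.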
# T1 sequence (P08069 999-1274 limits assumed): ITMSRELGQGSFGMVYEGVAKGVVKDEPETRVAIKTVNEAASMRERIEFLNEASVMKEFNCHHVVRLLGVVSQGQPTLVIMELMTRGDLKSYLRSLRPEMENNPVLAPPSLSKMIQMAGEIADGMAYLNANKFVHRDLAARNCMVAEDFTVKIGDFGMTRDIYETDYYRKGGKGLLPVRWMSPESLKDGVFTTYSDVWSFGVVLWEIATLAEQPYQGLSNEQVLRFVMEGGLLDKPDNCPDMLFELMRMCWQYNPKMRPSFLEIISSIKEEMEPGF
row,Compound,IC50
1,"CCNC1(C(=O)N2CCC(c3cc(C)c(Nc4ncc(Cl)c(Nc5cc(C)[nH]n5)n4)cc3C)CC2)CC1 [Compound 170, (4-(4-(5-chloro-4-(5-methyl-1H-pyrazol-3-ylamino)pyrimidin-2-ylamino)-2,5-dimethylphenyl)piperidin-1-yl)(1-(ethylamino)cyclopropyl)methanone]",3 nM
2,"Cc1cc(Nc2nc(Nc3cc(C)c(C4CCNC(=O)C4)cc3C)ncc2Cl)n[nH]1 (centres unmarked) [Compound 151, 4-(4-(5-chloro-4-(5-methyl-1H-pyrazol-3-ylamino)pyrimidin-2-ylamino)-2,5-dimethylphenyl)piperidin-2-one]",9 nM
3,"Cc1cc(Nc2nc(Nc3cc(C)c(C4CCN(C(=O)c5nc(C)oc5C(F)(F)F)CC4)cc3F)ncc2Cl)n[nH]1 [Compound 141, (4-(4-(5-chloro-4-(5-methyl-1H-pyrazol-3-ylamino)pyrimidin-2-ylamino)-5-fluoro-2-methylphenyl)piperidin-1-yl)(2-methyl-5-(trifluoromethyl)oxazol-4-yl)methanone]",69 nM
4,"Cc1cc(Nc2nc(Nc3cc(C(F)(F)F)c(N4CCN(C)CC4)cc3F)ncc2Cl)n[nH]1 [Compound 157, 5-chloro-N^2-(2-fluoro-4-(4-methylpiperazin-1-yl)-5-(trifluoromethyl)phenyl)-N^4-(5-methyl-1H-pyrazol-3-yl)pyrimidine-2,4-diamine]",75 nM
5,"CC(=O)N1CCC(c2cc(C)c(Nc3ncc(Cl)c(Nc4cc(C)[nH]n4)n3)cc2C)CC1 [Compound 110, 1-(4-(4-(5-chloro-4-(5-methyl-1H-pyrazol-3-ylamino)pyrimidin-2-ylamino)-2,5-dimethylphenyl)piperidin-1-yl)ethanone]",13 nM
6,"Cc1cc(Nc2nc(Nc3cc(C)c(C4CCN(C(=O)CN5CCN(C)CC5)CC4)cc3F)ncc2Cl)n[nH]1 [Compound 105, 1-(4-(4-(5-chloro-4-(5-methyl-1H-pyrazol-3-ylamino)pyrimidin-2-ylamino)-5-fluoro-2-methylphenyl)piperidin-1-yl)-2-(4-methylpiperazin-1-yl)ethanone]",51 nM
7,"Cc1cc(Nc2nc(Nc3cc(C)c(C4CCN(C(=O)N(C)C)CC4)cc3C)ncc2Cl)n[nH]1 [Compound 70, 4-(4-(5-chloro-4-(5-methyl-1H-pyrazol-3-ylamino)pyrimidin-2-ylamino)-2,5-dimethylphenyl)-N,N-dimethylpiperidine-1-carboxamide]",6 nM
8,"CCc1cc(Nc2nc(Nc3cc(C)c(C4CCN(CC)CC4)cc3F)ncc2Cl)n[nH]1 [Compound 268, 5-chloro-N4-(5-ethyl-1H-pyrazol-3-yl)-N2-(4-(1-ethylpiperidin-4-yl)-2-fluoro-5-methylphenyl)pyrimidine-2,4-diamine]",22 nM
9,"Cc1cc(Nc2nc(Nc3cc(C)c(C4CCN(CC(O)C(F)(F)F)CC4)cc3F)ncc2Cl)n[nH]1 (centres unmarked) [Compound 30, 3-(4-(4-(5-chloro-4-(5-methyl-1H-pyrazol-3-ylamino)pyrimidin-2-ylamino)-5-fluoro-2-methylphenyl)piperidin-1-yl)-1,1,1-trifluoropropan-2-ol]",71 nM
10,"Cc1cc(Nc2nc(Nc3cc(C4CCN(CCC(F)(F)F)CC4)c(F)cc3C)ncc2Cl)n[nH]1 [Compound 28, 5-chloro-N2-(4-fluoro-2-methyl-5-(1-(3,3,3-trifluoropropyl)piperidin-4-yl)phenyl)-N4-(5-methyl-1H-pyrazol-3-yl)pyrimidine-2,4-diamine]",5460 nM
11,"Cc1cc(Nc2nc(Nc3cc(C)c(C4CCN(C(=O)C5CNC5=O)CC4)cc3F)ncc2Cl)n[nH]1 (centres unmarked) [Compound 119, 3-(4-(4-(5-chloro-4-(5-methyl-1H-pyrazol-3-ylamino)pyrimidin-2-ylamino)-5-fluoro-2-methylphenyl)piperidine-1-carbonyl)azetidin-2-one]",2990 nM
12,"Cc1cc(Nc2nc(Nc3cc(C)c(C4CCN(CC(N)=O)CC4)cc3F)ncc2Cl)n[nH]1 [Compound 39, 2-(4-(4-(5-Chloro-4-(5-methyl-1H-pyrazol-3-ylamino)pyrimidin-2-ylamino)-5-fluoro-2-methylphenyl)piperidin-1-yl)acetamide]",19 nM
13,"Cc1cc(Nc2nc(Nc3cc(C)c(C4CCN(CC(O)C(F)(F)F)CC4)cc3C)ncc2Cl)n[nH]1 (centres unmarked) [Compound 29, 3-(4-(4-(5-chloro-4-(5-methyl-1H-pyrazol-3-ylamino)pyrimidin-2-ylamino)-2,5-dimethylphenyl)piperidin-1-yl)-1,1,1-trifluoropropan-2-ol]",23 nM
14,"Cc1cc(Nc2ncc(Cl)c(Nc3cc(C4CC4)[nH]n3)n2)c(F)cc1C1CCN(CC(N)=O)CC1 [Compound 34, 2-(4-(4-(5-chloro-4-(5-cyclopropyl-1H-pyrazol-3-ylamino)pyrimidin-2-ylamino)-5-fluoro-2-methylphenyl)piperidin-1-yl)acetamide]",49 nM
15,"Cc1cc(Nc2nc(Nc3cc(C)c(C4CCCN(C(=O)CN(C)C)C4)cc3C)ncc2Cl)n[nH]1 (centres unmarked) [Compound 180, 1-(3-(4-(5-chloro-4-(5-methyl-1H-pyrazol-3-ylamino)pyrimidin-2-ylamino)-2,5-dimethylphenyl)piperidin-1-yl)-2-(dimethylamino)ethanone]",25 nM
16,"CCN1CCC(c2cc(C)c(Nc3ncc(Cl)c(Nc4cc(C)[nH]n4)n3)cc2C(F)(F)F)CC1 [Compound 241, 5-chloro-N2-(4-(1-ethylpiperidin-4-yl)-2-methyl-5-(trifluoromethyl)phenyl)-N4-(5-methyl-1H-pyrazol-3-yl)pyrimidine-2,4-diamine]",68 nM
17,"Cc1cc(Nc2nc(Nc3cc(C)c(C4CCN(Cc5ccccn5)CC4)cc3C)ncc2Cl)n[nH]1 [Compound 307, 5-chloro-N2-(2,5-dimethyl-4-(1-(pyridin-2-ylmethyl)piperidin-4-yl)phenyl)-N4-(5-methyl-1H-pyrazol-3-yl)pyrimidine-2,4-diamine]",7 nM
18,"Cc1cc(Nc2nc(Nc3cc(C)c(C4CCN(C(=O)C5CN(C)C5)CC4)cc3F)ncc2Cl)n[nH]1 [Compound 117, (4-(4-(5-chloro-4-(5-methyl-1H-pyrazol-3-ylamino)pyrimidin-2-ylamino)-5-fluoro-2-methylphenyl)piperidin-1-yl)(1-methylazetidin-3-yl)methanone]",99 nM
19,"Cc1cc(Nc2nc(Nc3cc(C)c(C4CCN(C5CCN(S(C)(=O)=O)C5)CC4)cc3F)ncc2Cl)n[nH]1 (centres unmarked) [Compound 301, 5-chloro-N2-(2-fluoro-5-methyl-4-(1-(1-(methylsulfonyl)pyrrolidin-3-yl)piperidin-4-yl)phenyl)-N4-(5-methyl-1H-pyrazol-3-yl)pyrimidine-2,4-diamine]",38 nM
20,"Cc1cc(Nc2nc(Nc3cc(C)c(C4CC[N+]([O-])(C5CCOCC5)CC4)cc3F)ncc2Cl)n[nH]1 (centres unmarked) [Compound 294, 4-(4-(5-chloro-4-(5-methyl-1H-pyrazol-3-ylamino)pyrimidin-2-ylamino)-5-fluoro-2-methylphenyl)-1-(tetrahydro-2H-pyran-4-yl)piperidine 1-oxide]",64 nM
21,"Cc1cc(Nc2nc(Nc3cc(C)c(C4CCN(CCS(C)(=O)=O)CC4)cc3F)ncc2Cl)n[nH]1 [Compound 55, 5-Chloro-N2-(2-fluoro-5-methyl-4-(1-(2-(methylsulfonyl)ethyl)piperidin-4-yl)phenyl)-N4-(5-methyl-1H-pyrazol-3-yl)pyrimidine-2,4-diamine]",24 nM
22,"Cc1cc(Nc2nc(Nc3cc(C)c(C4CCN(C(C)C(=O)O)CC4)cc3F)ncc2Cl)n[nH]1 (centres unmarked) [Compound 54, 2-(4-(4-(5-chloro-4-(5-methyl-1H-pyrazol-3-ylamino)pyrimidin-2-ylamino)-5-fluoro-2-methylphenyl)piperidin-1-yl)propanoic acid]",1530 nM
23,"Cc1cc(Nc2nc(Nc3cc(C)c(C4CCN(CC(N)=O)CC4)cc3C)ncc2C(F)(F)F)n[nH]1 [Compound 202, 2-(4-(2,5-dimethyl-4-(4-(5-methyl-1H-pyrazol-3-ylamino)-5-(trifluoromethyl)pyrimidin-2-ylamino)phenyl)piperidin-1-yl)acetamide]",20 nM
24,"Cc1cc(Nc2nc(Nc3cc(C)c(C4CCN(CC#N)CC4)cc3F)ncc2Cl)n[nH]1 [Compound 199, 2-(4-(4-(5-chloro-4-(5-methyl-1H-pyrazol-3-ylamino)pyrimidin-2-ylamino)-5-fluoro-2-methylphenyl)piperidin-1-yl)acetonitrile]",77 nM
25,Cc1cc(Nc2nc(Nc3cc(C)c(C4CCN(C5CCS(=O)(=O)CC5)CC4)cc3C)ncc2Cl)n[nH]1 [Compound 146],258 nM
26,"Cc1cc(Nc2nc(Nc3cc(C)c(C4CCN(Cc5cnccn5)CC4)cc3F)ncc2Cl)n[nH]1 [Compound 315, 5-chloro-N2-(2-fluoro-5-methyl-4-(1-(pyrazin-2-ylmethyl)piperidin-4-yl)phenyl)-N4-(5-methyl-1H-pyrazol-3-yl)pyrimidine-2,4-diamine]",36 nM
27,"Cc1cc(Nc2nc(Nc3cc(C)c(C4CCN(C5CCNC5)CC4)cc3F)ncc2Cl)n[nH]1 (centres unmarked) [Compound 299, 5-chloro-N2-(2-fluoro-5-methyl-4-(1-(pyrrolidin-3-yl)piperidin-4-yl)phenyl)-N4-(5-methyl-1H-pyrazol-3-yl)pyrimidine-2,4-diamine]",101 nM
28,"COc1cc(Nc2ncc(Cl)c(Nc3cc(C)[nH]n3)n2)c(C)cc1C1CCN(C(=O)CN(C)C)CC1 [Compound 76, 1-(4-(4-(5-chloro-4-(5-methyl-1H-pyrazol-3-ylamino)pyrimidin-2-ylamino)-2-methoxy-5-methylphenyl)piperidin-1-yl)-2-(dimethylamino)ethanone]",9 nM
29,"Cc1cc(Nc2nc(Nc3cc(C)c(C4CCN(CCCS(=O)(=O)N5CCCC5)CC4)cc3F)ncc2Cl)n[nH]1 [Compound 244, 5-chloro-N2-(2-fluoro-5-methyl-4-(1-(3-(pyrrolidin-1-ylsulfonyl)propyl)piperidin-4-yl)phenyl)-N4-(5-methyl-1H-pyrazol-3-yl)pyrimidine-2,4-diamine]",84 nM
